Converted amounts (≈) assume the structure as drawn.
Key:
Aqueous solubility = format: physicochemical; conditions: in water
[1] = Gravimetric vapour sorption (GVS) analysis, hygroscopicity; format: physicochemical; conditions: mass change between 40% and 80% relative humidity, first adsorption scan, 25° C.
Procedure: Gravimetric Vapour Sorption (GVS) Analysis:
Measurements were performed simultaneously for the COMPOUND in the crystalline form A, B, and C on a multi sample instrument SPS-100n (Projekt Messtechnik, Ulm, Germany) operated in stepping mode at 25° C.

Row | Compound | solubility (Aqueous solubility) [µg/mL] | hygroscopic classification (European Pharmacopeia Technical Guide) [1] | mass gain [1]
1 | CCc1cc(-c2noc(-c3cc(OC)nc(C4CCCC4)c3)n2)cc(C)c1OC[C@@H](O)CO [COMPOUND, (S)-3-{4-[5-(2-cyclopentyl-6-methoxy-pyridin-4-yl)-[1,2,4]oxadiazol-3-yl]-2-ethyl-6-methyl-phenoxy}-propane-1,2-diol] | ~0.06 (≈ 0.132 µM) |  | 
2 | CCc1cc(-c2noc(-c3cc(OC)nc(C4CCCC4)c3)n2)cc(C)c1OC[C@@H](O)CO [Form A, (S)-3-{4-[5-(2-cyclopentyl-6-methoxy-pyridin-4-yl)-[1,2,4]oxadiazol-3-yl]-2-ethyl-6-methyl-phenoxy}-propane-1,2-diol] |  | Non-hygroscopic | less than 0.2%
3 | CCc1cc(-c2noc(-c3cc(OC)nc(C4CCCC4)c3)n2)cc(C)c1OC[C@@H](O)CO [Form B, (S)-3-{4-[5-(2-cyclopentyl-6-methoxy-pyridin-4-yl)-[1,2,4]oxadiazol-3-yl]-2-ethyl-6-methyl-phenoxy}-propane-1,2-diol] |  | Slightly hygroscopic | 0.5%
4 | CCc1cc(-c2noc(-c3cc(OC)nc(C4CCCC4)c3)n2)cc(C)c1OC[C@@H](O)CO [Form C, (S)-3-{4-[5-(2-cyclopentyl-6-methoxy-pyridin-4-yl)-[1,2,4]oxadiazol-3-yl]-2-ethyl-6-methyl-phenoxy}-propane-1,2-diol] |  | Slightly hygroscopic | 0.8%
